Test system: patients with fasting triglyceride levels >200 mg/dl and <500 mg/dl despite statin therapy
Assay: 12-week study: red blood cell fatty acids (EPA concentration, FADI ratios) by gas chromatography/flame ionization detection
Type: in vivo, human
Conditions: 4 g/day, placebo-adjusted, 12 weeks
Method: A multi-center, placebo-controlled, randomized, double-blind, 12-week study was performed to evaluate the efficacy and safety of >96% E-EPA in patients with fasting triglyceride levels >200 mg/dl and <500 mg/dl despite statin therapy (the mean of two qualifying entry values needed to be >185 mg/dl and at least one of the values needed to be >200 mg/dl). The primary objective of the study was to determine the efficacy of >96% E-EPA 2 g daily and 4 g daily, compared to placebo, in lowering fasting TG levels in patients with high risk for cardiovascular disease and with fasting TG levels 200 mg/dl and <500 mg/dl, despite treatment to LDL-C goal on statin therapy. The secondary objectives of this study were the following: • 1. To determine the safety and tolerability of >96% E-EPA 2 g daily and 4 g daily; • 2. To determine the effect of >96% E-EPA on lipid and apolipoprotein profiles including total cholesterol (TC), non-high-density lipoprotein cholesterol (non-HDL-C), low density lipoprotein cholesterol (LDL-C), high density lipoprotein cholesterol (HDL-C), and […]; • 3. To determine the effect of >96% E-EPA on lipoprotein associated phospholipase A2 (Lp-PLA2) from baseline to week 12; • 4. To determine the effect of >96% E-EPA on low-density lipoprotein (LDL) particle number and size; • 5. […]

`CC/C=C\C/C=C\C/C=C\C/C=C\C/C=C\CCCC(=O)OCC` [AMR101, ethyl eicosapentaenoate] was tested, and the “FADI-16 (Palmitoleic acid/Palmitic acid, C16:1/C16:0), % Change, RBCs” value was −15.7% and the “FADI-18 (Oleic acid/Stearic Acid, C18:1/C18:0), % Change, RBCs” value was −3.1%.

Reference: patent publication US11285127B2, “Compositions and methods for lowering triglycerides without raising LDL-C levels in a subject on concomitant statin therapy” (Amarin Pharmaceuticals Ireland Limited, priority 2013, dated 2022)
